Assays:
Assay type in all cases: in vivo
green foxtail (Se) = assay: Test Example 2: herbicidal effects by upland soil treatment; conditions: dose 100 g active ingredient per 10 ares, examined on the 21st day after treatment, standards of Table 44;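 also: 0-5 growth inhibition grade; 5 = over 90%; 4 = 70-90%; 3 = 50-70%; 2 = 30-50%; 1 = 10-30%; 0 = under 10%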
Method: In a 80 cm^2 plastic pot, upland soil was filled, and seeds of barnyard grass (Ec) and green foxtail (Se) were sown and covered with soil. A wettable powder prepared in accordance with Formulation Example 1 was diluted with water and uniformly applied to the soil surface by means of a small size spray at a rate of 100 l per 10 ares, so that the dose of the active ingredient would be 100 g per 10 ares. Thereafter, cultivation was carried out in a green house, and on the 21st day after the treatment, the herbicidal effects were examined in accordance with the standards as identified in Table 44.

monochoria (Mo) [1] = assay: Test Example 1: herbicidal effects by flooded paddy field treatment; design: herbicidal effects, Mo (monochoria):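 0-5 growth inhibition grade; 5 = over 90%; 4 = 70-90%; 3 = 50-70%; 2 = 30-50%; 1 = 10-30%; 0 = under 10%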; conditions: for Herbicidal effect index, Mo: dose 100 gai/10a, examined on 21st day after treatment, index 0-5 per Table 44; for herbicidal effects, Mo (monochoria): dose 100 g active ingredient per 10 ares, examined on the 21st day after treatment, standards of Table 44;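 as to Herbicidal effect index, Mo: 0-5 growth inhibition grade; 5 = over 90%; 4 = 70-90%; 3 = 50-70%; 2 = 30-50%; 1 = 10-30%; 0 = under 10%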
Summary of the method: (§1)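 Seeds sown in puddled paddy soil and flooded to 3 cm. Next day, a water-diluted wettable powder was dripped onto the water surface at 100 g active ingredient per 10 ares. Plants were grown in a greenhouse, and herbicidal effect was scored against a rating standard 21 days after treatment.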

barnyard grass (Ec) [2] = assay: Test Example 2: herbicidal effects by upland soil treatment; design: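 0-5 growth inhibition grade; 5 = over 90%; 4 = 70-90%; 3 = 50-70%; 2 = 30-50%; 1 = 10-30%; 0 = under 10%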; conditions: dose 100 g active ingredient per 10 ares, examined on the 21st day after treatment; for herbicidal effects, Ec (barnyard grass): standards of Table 44
Summary of the method: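 Pre-emergence test: barnyard grass and green foxtail sown in upland soil, then soil surface sprayed with wettable-powder formulation at 100 g active ingredient per 10 ares (100 l per 10 ares). Grown in greenhouse; herbicidal effect scored on a rating scale 21 days after treatment.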

barnyard grass (Eo) [3] = assay: Test Example 1: herbicidal effects by flooded paddy field treatment; design: herbicidal effects, Eo (barnyard grass):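 0-5 growth inhibition grade; 5 = over 90%; 4 = 70-90%; 3 = 50-70%; 2 = 30-50%; 1 = 10-30%; 0 = under 10%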; conditions: for Herbicidal effect index, Eo: dose 100 gai/10a, examined on 21st day after treatment, index 0-5 per Table 44; for herbicidal effects, Eo (barnyard grass): dose 100 g active ingredient per 10 ares, examined on the 21st day after treatment, standards of Table 44;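 as to Herbicidal effect index, Eo: 0-5 growth inhibition grade; 5 = over 90%; 4 = 70-90%; 3 = 50-70%; 2 = 30-50%; 1 = 10-30%; 0 = under 10%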
Summary of the method: as §1

barnyard grass (Ec) [4] = assay: Test Example 3: herbicidal effects by foliage treatment in upland field; design: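 0-5 growth inhibition grade; 5 = over 90%; 4 = 70-90%; 3 = 50-70%; 2 = 30-50%; 1 = 10-30%; 0 = under 10%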; conditions: dose 100 g active ingredient per 10 ares, examined on the 14th day after treatment
Summary of the method: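 Barnyard grass and green foxtail were grown in upland soil for 2 weeks in a greenhouse. A water-diluted wettable powder was sprayed over the foliage at 100 l per 10 ares, giving 100 g active ingredient per 10 ares. Herbicidal effect was scored on day 14 after treatment.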

barnyard grass (Eo) [5] = assay: Test Example 4: selectivity for a crop plant by flooded paddy field treatment; design: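 0-5 growth inhibition grade; 5 = over 90%; 4 = 70-90%; 3 = 50-70%; 2 = 30-50%; 1 = 10-30%; 0 = under 10%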; conditions: barnyard grass, dose 25 gai/10a, 21st day after treatment, index per Table 44
Summary of the method: (§2)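 Paddled paddy soil in pots sown with barnyard grass and monochoria, with second-leaf-stage rice transplanted, under 3 cm of water. Next day a diluted wettable powder was dripped onto the water at 25 g active ingredient per 10 ares; effects scored on a rating scale 21 days later in a greenhouse.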

rice (Or) = assay: as above; design: scale not given here; conditions: rice transplanted at second leaf stage, dose 25 gai/10a, 21st day after treatment, index per Table 44
Summary of the method: as §2

monochoria (Mo) [6] = assay: as above; design: scale not given here; conditions: monochoria, dose 25 gai/10a, 21st day after treatment, index per Table 44
Summary of the method: as §2

| SMILES | herbicidal effects, Se (green foxtail) (green foxtail (Se)) | Herbicidal effect index, Mo (monochoria (Mo) [1]) | herbicidal effects, Ec (barnyard grass) (barnyard grass (Ec) [2]) | Herbicidal effect index, Eo (barnyard grass (Eo) [3]) | herbicidal effects, Mo (monochoria) (monochoria (Mo) [1]) | herbicidal effects, Eo (barnyard grass) (barnyard grass (Eo) [3]) | Ec (herbicidal effects, index) (barnyard grass (Ec) [2]) | Ec (herbicidal effects, index) (barnyard grass (Ec) [4]) | Eo (herbicidal effect index) (barnyard grass (Eo) [5]) | Or (herbicidal effect index on crop) (rice (Or)) | Mo (herbicidal effect index) (monochoria (Mo) [6]) |
| --- | --- | --- | --- | --- | --- | --- | --- | --- | --- | --- | --- |
| CC(Oc1ccccc1)C(=O)N(C)C(c1cncnc1C(F)(F)F)C(C)C (mixture of isomers) [Compound 1-115] | 5 | 5 | 5 | 5 |  |  |  |  |  |  |  |
| COC(C(=O)N(C)C(c1cncnc1C(F)(F)F)C(C)C)c1ccc(Cl)cc1 (mixture of isomers) [Compound 1-155] | 4 |  | 4 |  | 5 | 5 |  |  |  |  |  |
| CCN(C(=O)Cc1cccc(F)c1)C(c1cncnc1C(F)(F)F)C(C)C (racemic) [1-173] | 5 |  | 5 |  | 5 | 5 |  |  |  |  |  |
| CCN(C(=O)Cc1ccc(C(F)(F)F)cc1)C(c1cncnc1C(F)(F)F)C(C)C (racemic) [1-174] | 5 |  | 5 |  | 5 | 5 |  |  |  |  |  |
| CC(C)C(c1cncnc1C(F)(F)F)N(C)C(=O)Oc1ccc(F)cc1 (racemic) [1-177] | 4 |  | 4 |  | 5 | 5 |  |  |  |  |  |
| CN(C(=O)Cc1ccc(Cl)cc1)C(c1ccccc1)c1cncnc1C(F)(F)F (racemic) [1-187] | 5 |  | 5 |  | 5 | 5 |  |  |  |  |  |
| CN(C(=O)Cc1ccc(F)cc1)C(c1ccc(Cl)cc1)c1cncnc1C(F)(F)F (racemic) [1-222] | 5 |  | 5 |  | 5 | 5 |  |  |  |  |  |
| Cc1ccc(CC(=O)N(C)C(c2cncnc2C(F)(F)F)C(C)C)s1 (racemic) [2-50] |  |  |  |  | 5 | 5 | 5 | 4 | 5 | 1 | 5 |
| CC(C)c1ncncc1C(C(C)C)N(C)C(=O)Cc1ccc(Cl)s1 (racemic) [2-71] |  |  |  |  | 5 | 5 | 5 | 5 | 5 | 1 | 5 |
| C#CCN(C(=O)Cc1ccc(Cl)s1)C(c1cncnc1C(F)(F)F)C(C)C (racemic) [2-74] |  |  |  |  | 5 | 5 | 5 | 4 | 5 | 1 | 5 |
| CCc1ncncc1C(C(C)C)N(C)C(=O)Cc1ccc(Cl)s1 (racemic) [2-75] |  |  |  |  | 5 | 5 | 5 | 5 | 5 | 1 | 5 |
| CCc1ncncc1C(C(C)C)N(C)S(=O)(=O)c1ccccc1 (racemic) [4-2] |  |  |  |  | 5 | 5 | 5 | 5 | 5 | 1 | 5 |
| COc1ccc(SC(=O)N(C)C(c2cncnc2C(F)(F)F)C(C)C)cc1 (racemic) [Compound 1-11] | 5 |  | 5 |  |  |  |  |  |  |  |  |
| CCC(c1cncnc1C(F)(F)F)N(C)C(=O)Cc1ccccc1 (racemic) [Compound 1-32] | 5 | 5 | 5 | 5 |  |  |  |  |  |  |  |
| CN(C(=O)Cc1ccc(F)cc1)C(c1cncnc1C(F)(F)F)C1CC1 (racemic) [Compound 1-35] | 5 | 5 | 5 | 5 |  |  |  |  |  |  |  |
| CC(C)C(c1cncnc1)N(C)C(=O)Cc1ccc(Cl)cc1 (racemic) [Compound 1-90] | 5 | 5 | 5 | 5 |  |  |  |  |  |  |  |
| CC(C)C(c1cncnc1C1CC1)N(C)C(=O)Cc1ccc(F)cc1 (racemic) [Compound 1-101] | 5 | 5 | 5 | 5 |  |  |  |  |  |  |  |
| Cc1ccc(CC(=O)N(C)C(c2cncnc2C2CC2)C(C)C)cc1 (racemic) [Compound 1-102] | 5 | 5 | 5 | 5 |  |  |  |  |  |  |  |
| CCCC(c1cncnc1C(F)(F)F)N(C)C(=O)Cc1ccc(Cl)cc1 (racemic) [Compound 1-114] | 5 | 5 | 5 | 5 |  |  |  |  |  |  |  |
| CC(C)c1ncncc1C(C(C)C)N(C)C(=O)Cc1ccccc1 (racemic) [Compound 1-128] | 5 |  | 5 |  | 4 | 5 |  |  |  |  |  |
| CN(C(=O)Cc1ccc(F)cc1)C(c1cncnc1C(F)(F)F)C1CCCC1 (racemic) [Compound 1-138] | 5 |  | 5 |  | 5 | 5 |  |  |  |  |  |
| CC(C)C(c1cncnc1C(F)(F)F)N(C)C(=O)Cc1cccc(F)c1F (racemic) [Compound 1-148] | 5 |  | 5 |  | 5 | 5 |  |  |  |  |  |
| CSc1ncncc1C(C(C)C)N(C)C(=O)Cc1ccc(Cl)cc1 (racemic) [Compound 1-151] | 5 |  | 5 |  | 5 | 5 |  |  |  |  |  |
| Cc1ncncc1C(N(C)C(=O)Cc1ccccc1)C(C)(C)C (racemic) [Compound 1-159] | 5 |  | 5 |  | 5 | 5 |  |  |  |  |  |
| Cc1ncncc1C(N(C)C(=O)Cc1ccc(F)cc1)C(C)(C)C (racemic) [Compound 1-160] | 5 |  | 5 |  | 5 | 5 |  |  |  |  |  |
| CC(C)C(c1cncnc1C(F)F)N(C)C(=O)Cc1ccccc1 (racemic) [Compound 1-163] | 5 |  | 5 |  | 5 | 5 |  |  |  |  |  |
| CC(C)C(c1cncnc1C(F)F)N(C)C(=O)Cc1ccc(Cl)cc1 (racemic) [Compound 1-165] | 5 |  | 5 |  | 5 | 5 |  |  |  |  |  |
| CCOC(=O)c1ncncc1C(C(C)C)N(C)C(=O)C(C)c1ccc(Cl)cc1 (single isomer, unassigned) [1-594] |  |  |  |  | 5 | 5 | 5 | 5 | 5 | 1 | 5 |
| Cc1ccc(NC(=O)N(C)C(c2cncnc2C(F)(F)Cl)C(C)C)cc1 (stereo not drawn) [Compound 1-37, N-methyl-N-[2-methyl-1-(4-chlorodifluoromethylpyrimidin-5-yl)propyl]-N′-(4-methylphenyl)urea] | 5 | 5 | 5 | 5 |  |  |  |  |  |  |  |

Reference: patent US6806230B1, “Pyrimidine derivatives and herbicides containing them” (Kumiai Chemical Industry Co., Ltd., priority 1999, dated 2004)
